Measured values taken from the NIST ThermoML archive (doi:10.1016/j.fluid.2007.06.006).
Numbers after ± are expanded uncertainties.

Conditions: Liquid

SMILES	vapor or sublimation pressure (355.83 K) [kPa]	vapor or sublimation pressure (365.99 K) [kPa]	vapor or sublimation pressure (373.87 K) [kPa]	vapor or sublimation pressure (380.27 K) [kPa]	vapor or sublimation pressure (385.71 K) [kPa]	vapor or sublimation pressure (390.45 K) [kPa]	vapor or sublimation pressure (392.2 K) [kPa]	vapor or sublimation pressure (377.95 K) [kPa]	vapor or sublimation pressure (389.37 K) [kPa]	vapor or sublimation pressure (398.01 K) [kPa]	vapor or sublimation pressure (405.04 K) [kPa]	vapor or sublimation pressure (411.02 K) [kPa]	vapor or sublimation pressure (416.25 K) [kPa]	vapor or sublimation pressure (418.18 K) [kPa]
COCC(C)O (centres undefined) [1-methoxy-2-propanol]	26.7 ± 0.2	40 ± 0.2	53.3 ± 0.2	66.7 ± 0.2	80 ± 0.2	93.3 ± 0.3	98.7 ± 0.3	–	–	–	–	–	–	–
COCC(C)OC(C)=O (centres undefined) [1-methoxy-2-propyl acetate]	–	–	–	–	–	–	–	26.7 ± 0.2	40 ± 0.2	53.3 ± 0.2	66.7 ± 0.2	80 ± 0.2	93.3 ± 0.3	98.7 ± 0.3
